Assay results taken from paper PMC3102601 (2011).

Target: phosphonoacetate hydrolase (PAc hydrolase) (Pseudomonas fluorescens, UniProt Q51782)
Format: biochemical

phosphonoacetate hydrolase (PAc hydrolase), sequence (Q51782 2-407): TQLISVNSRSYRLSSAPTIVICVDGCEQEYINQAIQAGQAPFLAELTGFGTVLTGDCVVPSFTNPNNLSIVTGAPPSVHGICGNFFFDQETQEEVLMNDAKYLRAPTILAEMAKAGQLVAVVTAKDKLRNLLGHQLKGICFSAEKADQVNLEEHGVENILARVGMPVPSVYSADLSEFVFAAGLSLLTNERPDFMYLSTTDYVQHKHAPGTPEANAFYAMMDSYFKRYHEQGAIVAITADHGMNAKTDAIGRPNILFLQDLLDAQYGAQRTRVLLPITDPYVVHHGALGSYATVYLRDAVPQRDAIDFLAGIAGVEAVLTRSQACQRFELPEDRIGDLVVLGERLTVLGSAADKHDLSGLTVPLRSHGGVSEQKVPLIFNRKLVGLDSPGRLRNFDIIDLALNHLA

## O=C(O)C(=O)CP(=O)(O)O [phosphonopyruvate]
  Ki: 1.2 ± 0.8 mM
